Results as given in ChEMBL document CHEMBL4342505, “Achieving In Vivo Target Depletion through the Discovery and Optimization of Benzimidazolone BCL6 Degraders” (J Med Chem, 2020).
Values after ≈ are worked out from the molar mass of the structure shown. Active and inactive are the calls of the source. No cut-off for these calls is given here.

How the values were obtained:
[1] = Cmax in SCID mouse at 15 mg/kg, po measured upto 24 hrs by LC/MS-MS analysis; assay type: ADME, organism-based; set-up: dose 15 mg/kg, route oral; conditions: in vivo
[2] = Drug level in SCID mouse blood; assay type: ADME, tissue-based; conditions: read-out: Ct
[3] = Plasma concentration in SCID mouse; assay type: ADME, cell-free
in vivo [4] = conditions: SCID, mouse, po, 5 mg/kg
[5] = Metabolic stability in CD-1 mouse liver microsomes assessed as intrinsic clearance at 1 uM measured upt0 30 mins by LC-MS/MS analysis; assay type: ADME, Microsome; conditions: 0.5 h
[6] = AUC (0 to 10 hrs) in SCID mouse at 5 mg/kg, po measured upto 10 hrs by LC/MS-MS analysis; assay type: ADME, organism-based; set-up: time < 10 hr, dose 5 mg/kg, route oral; conditions: in vivo
OCI-Ly3 = assay: Antiproliferative activity agianst human OCI-LY3 cells assessed as growth inhibition incubated for 14 days by CellTiter Glo reagent based assay
[7] = Cmax in SCID mouse at 5 mg/kg, po measured upto 24 hrs by LC/MS-MS analysis; assay type: ADME, organism-based; set-up: dose 5 mg/kg, route oral; conditions: in vivo
OCI-Ly1 = assay: Antiproliferative activity agianst human OCI-LY1 cells assessed as growth inhibition incubated for 14 days by CellTiter Glo reagent based assay
[8] = Protein binding in SCID mouse plasma assessed as unbound fraction; assay type: ADME, cell-free
[9] = Kinetic solubility in HEPES buffer containing 5% DMSO at pH 8 incubated for 20 hrs by NMR analysis; assay type: physicochemical; conditions: read-out: Kinetic_solubility
[10] = Lipophilicity, log D of compound at pH 7.4; assay type: physicochemical; conditions: buffer
[11] = Cmax in SCID mouse at 50 mg/kg, po measured upto 24 hrs by LC/MS-MS analysis; assay type: ADME, organism-based; set-up: dose 50 mg/kg, route oral; conditions: in vivo
SUD4 = assay: Antiproliferative activity agianst human SUDHL4 cells assessed as growth inhibition incubated for 14 days by CellTiter Glo reagent based assay; assay type: functional; conditions: SU-DHL-4, […]
[12] = Toxicity in SCID mouse xenografted with human OCI-LY1 cells assessed as adverse effect at 15 mg/kg, po observed for 24 hrs; assay type: organism-based; conditions: in vivo
in vivo [13] = conditions: SCID, mouse, po, 15 mg/kg
in vivo [14] = conditions: SCID, mouse, po, 50 mg/kg
[15] = AUC (0 to 10 hrs) in SCID mouse at 15 mg/kg, po measured upto 10 hrs by LC/MS-MS analysis; assay type: ADME, organism-based; set-up: dose 15 mg/kg, time < 10 hr, route oral; conditions: in vivo
Mus musculus [16] = assay: In vivo inhibition of BCL6 in SCID mouse xenografted with human OCI-LY1 cells assessed as reduction in BCL6 level at 15 mg/kg, po measured upto 10 hrs by Western blot analysis; assay type: functional, organism-based
[17] = AUC (0 to 10) hrs in SCID mouse at 50 mg/kg, po measured upto 10 hrs by LC/MS-MS analysis; assay type: ADME, organism-based; set-up: dose 50 mg/kg, time < 10 hr, route oral; conditions: in vivo
[18] = Kinetic solubility in PBS buffer containing 1% DMSO at pH 7.4 incubated for 2 hrs by HPLC analysis; assay type: physicochemical; conditions: read-out: Kinetic_solubility
Mus musculus [19] = assay: In vivo inhibition of BCL6 in SCID mouse xenografted with human OCI-LY1 cells assessed as reduction in BCL6 level at 15 mg/kg, po measured at 12 and 16 hrs by Western blot analysis; assay type: functional, organism-based

## C[C@@H]1CN(c2ncc(Cl)c(Nc3ccc4c(c3)n(CCC(C)(C)O)c(=O)n4C)n2)C[C@H](C)C1(F)F
[1]
  Cmax: 6680 to 6930 nM
[2]
  concentration: 2800 nM
[3]
  concentration: 1500 nM
In vivo [4]
  Tmax at 24 h: 0.5 to 1 h
[5]
  CLH: 78 µL/min/mg
[6]
  AUC(0-t) at 10 h: 11.6 to 13.1 µM·h
OCI-Ly3
  GI50: 1600 nM
[7]
  Cmax: 1870 to 2040 nM
OCI-Ly1
  GI50: 35 nM
[8]
  fraction unbound: 0.0007
[9]
  solubility kinetic at 20 h: 11 µM (≈ 5.6 µg/mL)
[10]
  logD: 4.3
[11]
  Cmax: 5320 to 6210 nM
SUD4
  GI50: 92 nM
[12]
  Activity: Non-Toxic
In vivo [13]
  Tmax at 24 h: 0.5 to 2 h
In vivo [14]
  Tmax at 24 h: 2 to 6 h
[15]
  AUC(0-t) at 10 h: 48.2 to 49.3 µM·h
Mus musculus [16]
  inhibition: Active
[17]
  AUC at 10 h: 47.4 to 56.3 µM·h
[18]
  solubility kinetic at 2 h: 8 µM (≈ 4.07 µg/mL)
Mus musculus [19]
  inhibition: inactive
